In the NIST ThermoML archive (doi:10.1016/j.jct.2009.11.014):

Conditions: Liquid; for mass density: vibrating tube; for viscosity: Stony Brook Scientific falling needle HPHTV-100 viscometer

CCCCCCn1cc[n+](C)c1.F[B-](F)(F)F [1-hexyl-3-methylimidazolium tetrafluoroborate]
Conditions	mass density [kg/m3]	viscosity [mPa·s]
283.15 K, 100 kPa	1155.97	–
283.15 K, 2000 kPa	1156.84	–
283.15 K, 4000 kPa	1157.76	–
283.15 K, 6000 kPa	1158.69	–
283.15 K, 8000 kPa	1159.61	–
283.15 K, 10000 kPa	1160.53	–
283.15 K, 12000 kPa	1161.43	–
283.15 K, 14000 kPa	1162.34	–
283.15 K, 20000 kPa	1165.02	–
283.15 K, 30000 kPa	1169.4	–
283.15 K, 40000 kPa	1173.6	–
283.15 K, 50000 kPa	1177.7	–
283.15 K, 60000 kPa	1181.65	–
285.09 K, 4270 kPa	–	449.6
285.15 K, 130 kPa	–	420.5
285.15 K, 1400 kPa	–	430.2
285.15 K, 3170 kPa	–	437
285.15 K, 5380 kPa	–	457.2
285.15 K, 12640 kPa	–	495.6
285.2 K, 5080 kPa	–	447.9
285.22 K, 12000 kPa	–	488.4
285.23 K, 7090 kPa	–	460.6
285.23 K, 10000 kPa	–	481.6
285.23 K, 14220 kPa	–	504.9
285.25 K, 8290 kPa	–	468.5
288.15 K, 100 kPa	1152.44	–
288.15 K, 2000 kPa	1153.37	–
288.15 K, 4000 kPa	1154.32	–
288.15 K, 6000 kPa	1155.11	–
288.15 K, 8000 kPa	1156.19	–
288.15 K, 10000 kPa	1157.11	–
288.15 K, 12000 kPa	1158.05	–
288.15 K, 14000 kPa	1158.97	–
288.15 K, 20000 kPa	1161.68	–
288.15 K, 30000 kPa	1166.05	–
288.15 K, 40000 kPa	1170.31	–
288.15 K, 50000 kPa	1174.45	–
288.15 K, 60000 kPa	1178.4	–
293.15 K, 100 kPa	1148.92	–
293.15 K, 2000 kPa	1149.88	–
293.15 K, 4000 kPa	1150.84	–
293.15 K, 6000 kPa	1151.81	–
293.15 K, 8000 kPa	1152.76	–
293.15 K, 10000 kPa	1153.7	–
293.15 K, 12000 kPa	1154.65	–
293.15 K, 14000 kPa	1155.57	–
293.15 K, 20000 kPa	1158.32	–
293.15 K, 30000 kPa	1162.74	–
293.15 K, 40000 kPa	1167.02	–
293.15 K, 50000 kPa	1171.16	–
293.15 K, 60000 kPa	1175.18	–
294.65 K, 14670 kPa	–	285.1
294.75 K, 8260 kPa	–	261.3
294.75 K, 10200 kPa	–	270.5
294.75 K, 12300 kPa	–	278.6
294.77 K, 6430 kPa	–	254.4
294.85 K, 140 kPa	–	238.3
294.85 K, 760 kPa	–	238.2
294.85 K, 2760 kPa	–	242.5
294.85 K, 4280 kPa	–	246.6
294.91 K, 1460 kPa	–	238.3
298.15 K, 100 kPa	1145.47	–
298.15 K, 2000 kPa	1146.39	–
298.15 K, 4000 kPa	1147.43	–
298.15 K, 6000 kPa	1148.36	–
298.15 K, 8000 kPa	1149.29	–
298.15 K, 10000 kPa	1150.27	–
298.15 K, 12000 kPa	1151.22	–
298.15 K, 14000 kPa	1152.19	–
298.15 K, 20000 kPa	1154.94	–
298.15 K, 30000 kPa	1159.42	–
298.15 K, 40000 kPa	1163.75	–
298.15 K, 50000 kPa	1167.96	–
298.15 K, 60000 kPa	1172.02	–
300.25 K, 1630 kPa	–	179.8
300.39 K, 2690 kPa	–	180.5
300.42 K, 14380 kPa	–	210.1
300.49 K, 4140 kPa	–	184.2
300.61 K, 6190 kPa	–	187
300.61 K, 12340 kPa	–	202.5
300.62 K, 8490 kPa	–	191.3
300.68 K, 10400 kPa	–	196.1
300.75 K, 1410 kPa	–	175.2
300.85 K, 120 kPa	–	168.1
303.15 K, 100 kPa	1141.99	–
303.15 K, 2000 kPa	1142.93	–
303.15 K, 4000 kPa	1143.92	–
303.15 K, 6000 kPa	1144.93	–
303.15 K, 8000 kPa	1145.93	–
303.15 K, 10000 kPa	1146.85	–
303.15 K, 12000 kPa	1147.82	–
303.15 K, 14000 kPa	1148.83	–
303.15 K, 20000 kPa	1151.57	–
303.15 K, 30000 kPa	1156.18	–
303.15 K, 40000 kPa	1160.55	–
303.15 K, 50000 kPa	1164.76	–
303.15 K, 60000 kPa	1168.87	–
308.15 K, 100 kPa	1138.53	–
308.15 K, 2000 kPa	1139.5	–
308.15 K, 4000 kPa	1140.49	–
308.15 K, 6000 kPa	1141.48	–
308.15 K, 8000 kPa	1142.48	–
308.15 K, 10000 kPa	1143.45	–
308.15 K, 12000 kPa	1144.45	–
308.15 K, 14000 kPa	1145.41	–
308.15 K, 20000 kPa	1148.24	–
308.15 K, 30000 kPa	1152.83	–
308.15 K, 40000 kPa	1157.26	–
308.15 K, 50000 kPa	1161.57	–
308.15 K, 60000 kPa	1165.72	–
308.25 K, 1850 kPa	–	114.6
308.35 K, 14230 kPa	–	131.8
308.48 K, 12350 kPa	–	128.7
308.55 K, 10300 kPa	–	125.6
308.59 K, 8230 kPa	–	122.7
308.65 K, 110 kPa	–	112.3
308.65 K, 800 kPa	–	113
308.65 K, 1730 kPa	–	114.4
308.65 K, 2760 kPa	–	115.1
308.65 K, 4300 kPa	–	117.5
308.65 K, 6380 kPa	–	120.2
313.15 K, 100 kPa	1135.1	–
313.15 K, 2000 kPa	1136.08	–
313.15 K, 4000 kPa	1137.11	–
313.15 K, 6000 kPa	1138.14	–
313.15 K, 8000 kPa	1139.15	–
313.15 K, 10000 kPa	1140.14	–
313.15 K, 12000 kPa	1141.13	–
313.15 K, 14000 kPa	1142.09	–
313.15 K, 20000 kPa	1144.98	–
313.15 K, 30000 kPa	1149.62	–
313.15 K, 40000 kPa	1154.1	–
313.15 K, 50000 kPa	1158.44	–
313.15 K, 60000 kPa	1162.62	–
318.15 K, 100 kPa	1131.72	–
318.15 K, 2000 kPa	1132.7	–
318.15 K, 4000 kPa	1133.74	–
318.15 K, 6000 kPa	1134.77	–
318.15 K, 8000 kPa	1135.78	–
318.15 K, 10000 kPa	1136.79	–
318.15 K, 12000 kPa	1137.78	–
318.15 K, 14000 kPa	1138.79	–
318.15 K, 20000 kPa	1141.71	–
318.15 K, 30000 kPa	1146.4	–
318.15 K, 40000 kPa	1150.92	–
318.15 K, 50000 kPa	1155.3	–
318.15 K, 60000 kPa	1159.5	–
319.85 K, 2700 kPa	–	70.1
319.89 K, 110 kPa	–	67.7
319.95 K, 700 kPa	–	68.1
319.95 K, 4470 kPa	–	70.7
319.95 K, 6480 kPa	–	72.9
319.95 K, 14430 kPa	–	77.8
319.98 K, 3850 kPa	–	70.5
319.98 K, 12490 kPa	–	76.1
319.99 K, 8440 kPa	–	73.7
320.03 K, 1300 kPa	–	68.2
320.05 K, 2440 kPa	–	69.2
320.05 K, 10500 kPa	–	74.9
323.15 K, 100 kPa	1128.3	–
323.15 K, 2000 kPa	1129.31	–
323.15 K, 4000 kPa	1130.36	–
323.15 K, 6000 kPa	1131.4	–
323.15 K, 8000 kPa	1132.43	–
323.15 K, 10000 kPa	1133.45	–
323.15 K, 12000 kPa	1134.46	–
323.15 K, 14000 kPa	1135.46	–
323.15 K, 20000 kPa	1138.4	–
323.15 K, 30000 kPa	1143.16	–
323.15 K, 40000 kPa	1147.2	–
323.15 K, 50000 kPa	1152.14	–
323.15 K, 60000 kPa	1156.42	–
